# Data as given in patent US8741962B2, “Process for preparation of Rasagiline and salts thereof” (USV Limited, priority 2009, dated 2014).
# Several values for one entry are separate records, joined by “and”; a condition that tells them apart may be missing. Equal entries are not always repeated. Where two headings read alike, the source gives them in different places.
# What was measured:
# [1] = Particle size determination by dry method (Malvern Mastersizer 2000, Scirocco 2000 dry unit); details: for d10 / d50 / d90: not micronized, as obtained by the process
# Description: Rasagiline mesylate is further micronized using conventional micronization techniques. After micronization, the sample is preferably passed through 100 mesh sieve and the particle size is measured using a Malvern Mastersizer 2000 dry unit, Scirocco 2000 which is commercially available from Malvern Instruments Ltd., United Kingdom.
# [2] = wet method
# [3] = remark: listed apart in the source
# Description: The present inventors have conducted extensive research work for solving the problem of agglomerization of micronized Rasagiline or salt thereof.
# [4] = after micronization, dry method
# [5] = before micronization, dry method
# [6] = Pack-1 (Glass bottle), after one month
# [7] = Pack-1 (Glass bottle), micronized sample (initial)
# [8] = Pack-2 (PET bottle), after one month
# [9] = Pack-2 (PET bottle), micronized sample (initial)
# [10] = room temperature, glass bottle or PET bottle, about one month
smiles,measurement,setting,value
"C#CCN[C@@H]1CCc2ccccc21.Cl [R-(+)-Rasagiline hydrochloride, (1R)-2,3-dihydro-N-2-propynyl-1H-indane-1-amine hydrochloride]",size of 90% of the total amount by volume of particles,micronized,less than 20 microns
same,size of 90% particles,not micronized,less than 500 microns
"C#CCN[C@@H]1CCc2ccccc21.CS(=O)(=O)O [R(+)-Rasagiline mesylate, (1R)-2,3-dihydro-N-2-propynyl-1H-indane-1-amine mesylate]",Particle Size Distribution D10,[1]; [4],1.44 micron and 1.43 micron
same,Particle Size Distribution D50,[1]; [4],3.00 micron and 2.90 micron
same,Particle Size Distribution D90,[1]; [4],5.94 micron and 5.74 micron
same,Particle Size Distribution D10,[1]; [5],3.65 micron and 3.18 micron
same,Particle Size Distribution D50,[1]; [5],15.27 micron and 13.33 micron
same,Particle Size Distribution D90,[1]; [5],57.38 micron and 47.11 micron
same,particle size of 50% of particles,[1]; micronized,less than or equal to 4 μ
same,particle size of 90% of particles,[1]; micronized,less than or equal to 9 μ
same,d10,[1],2-9 μ
same,d50,[1],10-20 μ
same,d90,[1],40-80 μ
same,Particle Size Distribution D90,[2]; after micronization,796.35 micron and 1007.18 micron
same,Particle Size Distribution D50,[2]; before micronization,141.23 micron and 174.70 micron
same,Particle Size Distribution D90,[2]; before micronization,590.45 micron and 832.14 micron
same,D10,[3]; [6],1.70
same,D50,[3]; [6],3.66
same,D90,[3]; [6],7.55
same,D10,[3]; [7],1.40
same,D50,[3]; [7],3.33
same,D90,[3]; [7],7.88
same,D10,[3]; [8],1.41
same,D50,[3]; [8],2.97
same,D90,[3]; [8],5.64
same,D10,[3]; [9],1.43
same,D50,[3]; [9],2.90
same,D90,[3]; [9],5.74
same,Agglomeration of the particles on storage,[3]; [10],no agglomeration of the particles was observed
same,Change in XRPD pattern and particle size on storage,[3]; [10],no change in XRPD pattern and particle size
"Br.C#CCN[C@@H]1CCc2ccccc21 [R(+)-Rasagiline hydrobromide, (1R)-2,3-dihydro-N-2-propynyl-1H-indane-1-amine hydrobromide]",size of 90% of the total amount by volume of particles,"[1]; micronized, dry method",less than 20 microns
same,d10,[1],2-9 μ
same,d50,[1],10-20 μ
same,d90,[1],40-80 μ
